Source: paper PMC5943319, “Cloning and characterization of a pyrethroid pesticide decomposing esterase gene, Est3385, from Rhodopseudomonas palustris PSB-S” (Scientific Reports, 2018)

System: Est3385
Test: GC quantification of residual substrate, Michaelis-Menten
Format: biochemical, Rhodopseudomonas palustris
Conditions: GST fusion; substrate 10-50 µg/ml (below the Km); pH and temperature of kinetics not stated

CC1(C)C(C(=O)OC(C#N)c2cccc(Oc3ccccc3)c2)C1(C)C (stereo not shown) [fenpropathrin] showed a Km of 734 ± 13 µM.
